In patent US10882860B2, “Treatment of osteoarthritis” (Samumed, LLC, priority 2015, dated 2021):
pEC50: −log10 of the molar value.

Assays:
[1] = system: Wnt activity (Sp5-Luc reporter, SW480 colon carcinoma cells); experiment: Sp5-Luc Wnt reporter gene assay; format: cell-based; settings: Homo sapiens, FIG. 14
Description: The compound of Formula (I) was screened for Wnt activity. The screening assay is described as follows. Reporter cell lines were generated by stably transducing cancer cell lines (e.g., colon cancer) or primary cells (e.g., IEC-6 intestinal cells) with a lentiviral construct that included a Wnt-responsive promoter driving expression of the firefly luciferase gene.
SW480 colon carcinoma cells were transduced with a lentiviral vector expressing luciferase with a human Sp5 promoter consisting of a sequence of eight TCF/LEF binding sites. SW480 cells stably expressing the Sp5-Luc reporter gene and a hygromycin resistant gene were selected by treatment with 150 μg/mL of hygromycin for 7 days. These stably transduced SW480 cells were expanded in cell culture and used for all further screening activities. […] Following incubation, 20 μL of BrightGlo luminescence reagent (Promega) was added to each well of the 384-well assay plates. The plates were placed on an orbital shaker for 2 min and then luminescence was quantified using the Envision (Perkin Elmer) plate reader. Readings were normalized to DMSO-only treated cells, and normalized activities were utilized for EC50 calculations using the dose-response log (inhibitor) vs. response—variable slope (four parameters) nonlinear regression feature available in GraphPad Prism 5.0 (or Dotmatics).

secreted GAG = experiment: Immunosuppression in chondrocytes: GAG content (DMMB); format: cell-based, human; settings: cells stimulated with TNF-α and oncostatin M or IL-1β; 72 hours; FIG. 20A
Procedure: Human MSCs were plated in 10 cm dishes in chondrogenic induction medium (Lonza; DMEM, dexamethasone, ascorbate, insulin-transferrin-selenium [ITS supplement], gentamycin-amphotericin [GA-1000], sodium pyruvate, proline and L-glutamine) and treated with TGF-β3 (20 μg/mL) to induce chondrogenic differentiation. Cells from 4 dishes were pooled and re-plated in 24-well plates in Chondrogenic Induction Medium and treated with various concentrations of the compound of Formula (I). 4 hours later, cells were stimulated by adding TNF-α (20 μg/mL)+Oncostatin M ([…]) or IL-1β (10 μg/mL) and incubated at 37° C., 5% CO2 for 72 hours. Chondrocytes were digested with papain (Sigma). GAG content was measured using the dimethylmethylene blue (DMMB) kit (Chondrex). Briefly, the digested chondrocytes were mixed with DMMB in formate buffer and absorbance at 535 nm was measured using Cytation 3 (Biotek). Nitric oxide was measured using Greiss reagent (Promega) according to manufacturer's protocol.

[2] = system: moderate-to-severe symptomatic knee OA subjects; experiment: Phase 1 clinical study: efficacy (WOMAC, Physician Global Assessment, strict OARSI responders); format: in vivo, human; settings: for decrease in median WOMAC total score from baseline: FIG. 24B; for decrease in mean WOMAC total score [0-96] from baseline: FIG. 24A
Description: The study was a first-in-human, multicenter, 24-week, placebo-controlled, single-dose, dose-escalation safety study of a Wnt pathway inhibitor in subjects suffering from moderate to severe symptomatic knee OA. The sample size was 20 subjects (randomized 4:1, 16 active: 4 placebo) per dosing cohort. Inclusion criteria included: Age, 50-75 years; Western Ontario and McMaster Universities Arthritis Index (WOMAC) Total score, 36-72 (out of 96); Kellgren-Lawrence grade, 2 or 3; and a willingness to omit pain medication for 24 hours prior to pain assessments. Exclusion criteria included: BMI>40; and treatment with IA steroids within 2 months or HA derivatives within 6 months prior to injection. A full list of the inclusion and exclusion criteria for this study can be found on clinicaltrials.gov (NCT02095548).
The dosing sequence included suspension compositions of either 0.03 mg, 0.07 mg, or 0.23 mg of the compound of Formula (I) (Form 1) per 2 mL injection in a vehicle containing 0.5% carboxymethylcellulose sodium and 0.05% polysorbate 80 in pH 7.4 phosphate buffered saline. The placebo contained only the diluent of 0.5% carboxymethylcellulose sodium and 0.05% polysorbate 80 in pH 7.4 phosphate buffered saline. The subjects were given a single, intra-articular injection in the target knee on Treatment Day 1 and participated in a follow-up period of 24 weeks.
Safety, pharmacokinetics (PK), biomarker, and efficacy data were collected at baseline and during the 24-week follow-up period. Safety data included adverse events (AEs), concomitant medications, clinical laboratory sampling, medical history, vital signs, ECGs, hip bone density (DXA) analysis, qCT of the target knee, and evaluation of bone edema via MM. For PK data, samples were collected 0, 4, and 24 hours post dose, and at Weeks 4 and 12. Biomarker data included data for procollagen type 1 N-propeptide (P1NP), beta C-terminal telopeptide of type 1 collagen (βCTX), and cartilage oligomeric matrix protein (COMP). Efficacy data included measurements of WOMAC Total score, WOMAC Function and Pain subscores, pain VAS, Physician Global Assessment of Disease Activity, MM, and radiographs. Efficacy assessments were used to determine the percentage of OMERACT-OARSI “strict” responders. Exploratory analyses of efficacy outcomes were conducted using a baseline-adjusted repeated measures analysis of covariance (ANCOVA) in the Intention-to-Treat (ITT) population. The sponsor was unblinded after Week 12 for each cohort; site investigators remained blinded. All AEs reported in this study were […]. Investigator opinion regarding whether AEs were related to the compound of Formula (I) was also collected for informational purposes.
Strict responders were classified by having either a WOMAC Function subscore improvement of ≥50% with a corresponding Function score improvement of ≥20 points (scaled to [0-100]), or a WOMAC Pain subscore improvement of ≥50% with a corresponding Pain score improvement of ≥20 points (scaled to [0-100]).

SMILES: CC(C)CC(=O)Nc1cncc(-c2ccc3[nH]nc(-c4nc5c(-c6cccc(F)c6)cncc5[nH]4)c3c2)c1 [compound of Formula (I)]
- pEC50 [1]: 8.70
- secreted GAG (secreted GAG): reduced
- WOMAC function [0-68], Week 12 Actual [Mean (SD)] ([2]; 0.03 mg cohort, N 17): 20.3
- WOMAC function [0-68], Week 12 Change from baseline [Mean (SD)] ([2]; 0.03 mg cohort, N 17): −18.4
- WOMAC pain [0-20], Week 12 Actual [Mean (SD)] ([2]; 0.03 mg cohort, N 17): 6.3
- WOMAC pain [0-20], Week 12 Change from baseline [Mean (SD)] ([2]; 0.03 mg cohort, N 17): −4.4
- decrease in median WOMAC total score from baseline ([2]; 0.03 mg cohort): greater than 25
- median decrease in physician global assessment from baseline ([2]; 0.03 mg cohort, FIG. 25B): about 48
- WOMAC function [0-68], Week 12 Actual [Mean (SD)] ([2]; 0.07 mg cohort, N 16): 18.4
- WOMAC function [0-68], Week 12 Change from baseline [Mean (SD)] ([2]; 0.07 mg cohort, N 16): −19.2
- WOMAC pain [0-20], Week 12 Actual [Mean (SD)] ([2]; 0.07 mg cohort, N 16): 5.3
- WOMAC pain [0-20], Week 12 Change from baseline [Mean (SD)] ([2]; 0.07 mg cohort, N 16): −5.6
- decrease in mean WOMAC total score [0-96] from baseline ([2]; 0.07 mg cohort): about 27
- decrease in median WOMAC total score from baseline ([2]; 0.07 mg cohort): greater than 25
- odds ratio (OR) of strict OARSI response vs placebo ([2]; 0.07 mg cohort, Week 12, P=0.081): 4.2
- percentage of strict OARSI responders ([2]; 0.07 mg cohort, Week 12, placebo 42%): 75%
- WOMAC function [0-68], Week 12 Actual [Mean (SD)] ([2]; 0.23 mg cohort, N 16): 22.6
- WOMAC function [0-68], Week 12 Change from baseline [Mean (SD)] ([2]; 0.23 mg cohort, N 16): −17.8
- WOMAC pain [0-20], Week 12 Actual [Mean (SD)] ([2]; 0.23 mg cohort, N 16): 5.8
- WOMAC pain [0-20], Week 12 Change from baseline [Mean (SD)] ([2]; 0.23 mg cohort, N 16): −5.7
- decrease in mean WOMAC total score [0-96] from baseline ([2]; all cohorts (0.03, 0.07, 0.23 mg)): ≥ 23
- decrease in mean physician global assessment score [0-100] from baseline ([2]; all cohorts (0.03, 0.07, 0.23 mg), FIG. 25A): ≥ 30
